Measurements reported in patent US20040071718A1, “Local nasal immunotherapy for allergen-induced airway inflammation” (priority 2002, published 2004).
Marks after values point to notes of the source that are not given here.

Legend:
Format in all cases: in vivo
Balb/c mice [1] = assay: Cytokine producing cells in peripheral blood (flow cytometry) after LNIT; conditions: for IL-5/IFN-γ (CD4) / IL-5/IFN-γ (CD8): peripheral blood
Protocol: (§1) Male Balb/c mice were obtained from the National Laboratory Breeding Research Center in Taiwan and were raised in a specific pathogen-free environment. The mice used were between six and eight weeks of age. Groups of six mice were caged separately according to their treatment.
(§2) Mice were immunized by way of an intraperitoneal (IP) injection of 1 μg/0.1 mL rDp2 emulsified in 4.0 mg/0.062mL aluminum hydroxide Al(OH)3 (Whitehall Lab Ltd. Punchbowl, NSW, Australia) on day 0 and day 7. Following immunization, local nasal immunotherapy (LNIT) was conducted daily from day 14 to day 35 with Dp2 28-40, Dp2 28-40A, FIP alone or FIP mixed with either Dp2 28-40 or Dp2 28-40A (FIP, 50 μg/mouse/day; Dp2 peptide, 1 μg/20 μL) in PBS with 10% glycerol. Normal saline (NS) and irrelevant allergen Bt were used as a negative control. […] On day 28, mice were lightly anesthetized with an IP injection of 60 mg/kg of sodium pentobarbital (Sigma Chemical Co., St Louis, Mo., U.S.A.) and inoculated intratracheally (IT) with 1 μg/50 μL of rDp 2 on day 28 and day 35. Two days subsequent to the second IT inoculation, the mice were sacrificed following the assessment of their pulmonary function (FIG. 1).
Two-color staining methods were used to analyze IFN-γ and IL-5 expression amongst CD4 cells. Leukocytes derived from peripheral blood (PBL) were stimulated with PMA (50 ng/mL), ionomycin (2 μM) and GolgiStop (Cytofix/Cytoperm Plus Pharmingen San Diego, Calif., U.S.A.) for five hours and then washed twice using PBS. The cells were stained with CD4-PerCP, CD8-FITC or IgG1-FITC (PharMingen) at room temperature (RT) for 30 minutes and then washed. Cells were fixed with cytofix/cytoperm at RT for 30 minutes and then stained with anti-cytokine antibody and IgG2a-PE (PharMingen) at RT for 30 minutes and subsequently washed. Both IgG1-FITC and IgG2a-PE were purchased from the same manufacturer as the anticytokine antibodies and the negative controls. Cells were resuspended in 0.5 mL PBS containing 0.1% w/v sodium azide. Mean fluorescence was measured by means of Becton Diskinson flow cytometry (Becton Diskinson, Calif., U.S.A.). A total of 2,000 cells was analyzed for each sample.

Balb/c mice [2] = assay: Leukocyte subpopulations in BALF of rDp2-sensitized mice after local nasal immunotherapy (LNIT); conditions: BALF
Protocol: Male Balb/c mice were obtained from the National Laboratory Breeding Research Center in Taiwan and were raised in a specific pathogen-free environment. The mice used were between six and eight weeks of age. Groups of six mice were caged separately according to their treatment. Recombinant Dermatophoides pteronyssinus group 2 (rDp2) was prepared as previously described(Tsai J J, et al. Int Arch Allergy Immunol 2000;121:205-10). Dp2 28-40 and Dp2 28-40A were obtained from Dr. Jonathan Lamb (Respiratory Medicine Unit, Edinburgh University, Medical School, Edinburgh, UK) (Verhoef A, and Lamb J R. J Immunol 2000;164:6034-6040). FIP was obtained from Dr. Ko Jiunn-Liang (Institute of Toxicology, Chung Shan Medical University, Taichung, R O C) (J L Ko, et al. Eur. J. Biochem. 1995;228:244-249).
as §2
Subsequent to pulmonary function measurement having been completed, bronchoalveolar lavage (BAL) was performed using the following procedure. BAL fluids were collected with lmL sterile endotoxin-free saline washes of each lung via the trachea for each mouse. BAL cells were washed once with PBS by centrifugation at 200×g at 4° C. Subsequent to washing, the cells were resuspended in RPMI-1640 (Sigma Chemical Co.). The total leukocyte count in BAL fluids was determined using a hemocytometer. The BAL fluids were aspirated and stored at −70° C. until needed for assay purposes. Subsequent to total leukocyte counting, a cytospin preparation of 100 μL BAL fluids (2×10^5 cells/mL) was conducted, the cells being cytocentrifuged directly onto glass slides at 350 r.p.m. for five minutes using a Cytospin 3 cytocentrifuge (Shandon Scientific Limited, Astmoor, Runcorn, UK), and then stained with Liu stain (Tonyar Diagnostic Inc, Taipei & Hien, Taiwan). The differential counts were performed for a total of 200 leukocyte cells.

Balb/c mice [3] = assay: IL-5 and IFN-γ levels in sera and BALF (ELISA) after LNIT; conditions: Example 2, mean ± SEM, n = 6
Protocol: as §1, §2
IFN-γ and IL-5 were measured using commercially-available ELISA kits, using a specific mouse monoclonal Ab that recognized different epitopes of the cytokine molecules. The lowest detector range was 10 pg/mL. Given that the BALF was considered to be at too diluted a concentration, IL-4 was not measured.

[4] = Example 1, percentage of positive stained cells in the PBMC of six mice
[5] = Example 2, percentage of total leukocytes in the peripheral blood of six mice
[6] = Example 1, LNIT day 14-35, rDp2 IT challenge, mean ± SEM of six animals
[7] = Example 2 (FIP study), mean ± SEN of six mice

`C[C@@H]1C[C@H]2[C@@H]3CCC4=CC(=O)C=C[C@]4(C)[C@@]3(F)[C@@H](O)C[C@]2(C)[C@@]1(O)C(=O)CO` [DEX, Dexamethasone, reference compound] was tested, and the “CD4^+” value (Balb/c mice [1]; [4]) was 45.6 percentage, the “CD8^+” value (Balb/c mice [1]; [4]) was 7.0 percentage and the “IFN-γ^+/CD4^+” value (Balb/c mice [1]; [4]) was 7.9 percentage. For the same molecule, the “IFN-γ^+/CD8^+” value (Balb/c mice [1]; [4]) was 7.9 percentage, the “IL-5^+/CD4^+” value (Balb/c mice [1]; [4]) was 9.2 percentage and the “IL-5^+/CD8^+” value (Balb/c mice [1]; [4]) was 8.2 percentage. The “IL-5/IFN-γ (CD4)” value (Balb/c mice [1]; Example 1, ratio of IL-5 to IFN-γ producing CD4 cells) was 1.2, the “IL-5/IFN-γ (CD8)” value (Balb/c mice [1]; Example 1, ratio of IL-5 to IFN-γ producing CD8 cells) was 1.0 and the CD4 (Balb/c mice [1]; [5]) was 51.2 percentage. For the same molecule, the CD8 (Balb/c mice [1]; [5]) was 7.9 percentage, the “IFN-γ^+/CD4^+” value (Balb/c mice [1]; [5]) was 17.7 percentage and the “IFN-γ^+/CD8^+” value (Balb/c mice [1]; [5]) was 14.1 percentage. For the same molecule, the “IL-5^+/CD4^+” value (Balb/c mice [1]; [5]) was 15.8 percentage, the “IL-5^+/CD8^+” value (Balb/c mice [1]; [5]) was 14.1 percentage and the “IL-5/IFN-γ (CD4)” value (Balb/c mice [1]; Example 2, ratio, CD4 cells) was 0.9. For the same molecule, the “IL-5/IFN-γ (CD8)” value (Balb/c mice [1]; Example 2, ratio, CD8 cells) was 1.0, the Eosinophil (Balb/c mice [2]; [6]) was 3.2 ± 0.4* 10^4 cells/mL and the Lymphocyte (Balb/c mice [2]; [6]) was 9.4 ± 1.5* 10^4 cells/mL. For the same molecule, the Macrophage (Balb/c mice [2]; [6]) was 29.2 ± 4.4* 10^4 cells/mL, the Neutrophil (Balb/c mice [2]; [6]) was 6.6 ± 1.0* 10^4 cells/mL and the Total cell (Balb/c mice [2]; [6]) was 46.4 ± 2.2* 10^4 cells/mL. The Eosinophil (Balb/c mice [2]; [7]) was 3.8 ± 0.5 ×10^4/mL, the Lymphocyte (Balb/c mice [2]; [7]) was 15.3 ± 0.6 ×10^4/mL and the Macrophage (Balb/c mice [2]; [7]) was 28.3 ± 1.7 ×10^4/mL. For the same molecule, the Neutrophil (Balb/c mice [2]; [7]) was 8.0 ± 0.8 ×10^4/mL, the IFN-γ (Balb/c mice [3]; BALF) was 9.9 ± 0.6 pg/mL and the IL-5 (Balb/c mice [3]; BALF) was 19.2 ± 1.2 pg/mL. For the same molecule, the IFN-γ (Balb/c mice [3]; Sera) was 46.2 ± 3.4 pg/mL and the IL-5 (Balb/c mice [3]; Sera) was 138.0 ± 16.6 pg/mL.
